Laboratory results from ChEMBL document CHEMBL1201862, “PubChem BioAssay data set” (2004).
The source made the active and inactive calls.

Legend:
[1] = biological target: T1, Cannabinoid receptor 2 (Homo sapiens, UniProt P34972); experiment: SAR analysis of antagonists of the Cannabinoid Receptor 2 using an Image-Based Assay - Set 2. [Related pubchem assays (depositor defined):AID1961, AID1965]; assay type: functional
[2] = biological target: T2, G-protein coupled receptor 55 (Homo sapiens, UniProt Q9Y2T6); experiment: SAR analysis of selective Agonists of GPR55 using an Image-Based Assay - Set 2. [Related pubchem assays (depositor defined):AID1961, AID1965]; assay type: functional
[3] = biological target: T1, Cannabinoid receptor 2; experiment: SAR analysis of agonists of the Cannabinoid Receptor 2 using an Image-Based Assay - Set 2. [Related pubchem assays (depositor defined):AID1961, AID1965]; assay type: functional
[4] = biological target: T3, G-protein coupled receptor 35 (Homo sapiens, UniProt Q9HC97); experiment: SAR analysis of Agonists of the GPR35 Receptor using an Image-Based Assay - Set 3. [Related pubchem assays (depositor defined):AID1961, AID1965]; assay type: functional
[5] = biological target: T4, Cannabinoid receptor 1 (Homo sapiens, UniProt P21554); experiment: SAR analysis of antagonists of the Cannabinoid Receptor 1 using an Image-Based Assay - Set 3. [Related pubchem assays (depositor defined):AID1961, AID1965]; assay type: functional
[6] = biological target: T4, Cannabinoid receptor 1; experiment: SAR analysis of agonists of the Cannabinoid Receptor 1 using an Image-Based Assay - Set 3. [Related pubchem assays (depositor defined):AID1961, AID1965]; assay type: functional
[7] = biological target: T3, G-protein coupled receptor 35; experiment: SAR analysis of Antagonists of the GPR35 Receptor using an Image-Based Assay - Set 4. [Related pubchem assays (depositor defined):[…]]; assay type: functional
[8] = test system: Streptococcus sp. 'group A'; experiment: growth inhibition of control SK(-) GAS strain, dose response, counter-screen for streptokinase expression inhibitor project, luminescence, kanamycin, BacTiterGlo, confirmation (AID 1900); assay type: functional, organism-based; details: Streptococcus sp. 'group A'
[9] = biological target: T5, Streptokinase A (Streptococcus pyogenes serotype M1, UniProt P10520); experiment: S. pyogenes streptokinase expression inhibitors, potency, dose response, plasminogen activation absorbance, OD405 (AID 1914); assay type: functional, Streptococcus pyogenes M1 GAS;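 also: secreted streptokinase activity via plasminogen activation per viability signal from cell pellet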
T5 sequence (P10520 whole entry): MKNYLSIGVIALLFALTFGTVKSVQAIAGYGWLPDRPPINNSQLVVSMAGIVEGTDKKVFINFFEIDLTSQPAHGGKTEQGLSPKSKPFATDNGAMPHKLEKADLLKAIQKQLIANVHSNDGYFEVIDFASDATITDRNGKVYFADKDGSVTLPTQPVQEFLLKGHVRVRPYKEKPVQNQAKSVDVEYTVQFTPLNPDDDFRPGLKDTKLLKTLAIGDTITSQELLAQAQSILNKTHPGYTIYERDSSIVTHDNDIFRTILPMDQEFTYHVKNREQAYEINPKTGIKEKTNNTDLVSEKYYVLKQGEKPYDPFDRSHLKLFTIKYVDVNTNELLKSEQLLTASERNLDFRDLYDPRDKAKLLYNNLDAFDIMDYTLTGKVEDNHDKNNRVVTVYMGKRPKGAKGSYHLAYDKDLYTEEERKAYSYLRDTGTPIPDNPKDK

[10] = biological target: T2, G-protein coupled receptor 55; experiment: GPR55 antagonists blocking LPI-driven arrestin recruitment, primary screen, imaging, U2OS, beta-arrestin-GFP, LPI agonist (AID 2013); assay type: functional;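 also: antagonist potency measured as reduced agonist-driven arrestin aggregation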
[11] = test system: Streptococcus; experiment: Group A Streptococcus viability loss, dose response, counter-screen for streptokinase expression inhibitor project, luminescence, BacTiterGlo (AID 1915); assay type: functional, organism-based; details: Streptococcus;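 also: potency for reduction of bacterial viability or growth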
[12] = biological target: Hexokinase (Trypanosoma brucei, UniProt Q38C41); experiment: Confirmation assay for inhibitors of Trypanosoma brucei hexokinase 1-Analogue-first series. [Related pubchem assays (depositor defined):AID1430, AID1632, AID2516, AID2560, AID2579, AID2600, AID449725, AID492951]; assay type: functional
[13] = biological target: T6, Tyrosine-protein phosphatase non-receptor type 7 (Homo sapiens, UniProt P35236); experiment: SAR analysis of chemical inhibitors of HePTP using a Fluorescent assay - Set 2. [Related pubchem assays (depositor defined):AID1059, AID1077, AID1661, AID2085, AID521]; assay type: functional
T6 sequence (P35236 whole entry): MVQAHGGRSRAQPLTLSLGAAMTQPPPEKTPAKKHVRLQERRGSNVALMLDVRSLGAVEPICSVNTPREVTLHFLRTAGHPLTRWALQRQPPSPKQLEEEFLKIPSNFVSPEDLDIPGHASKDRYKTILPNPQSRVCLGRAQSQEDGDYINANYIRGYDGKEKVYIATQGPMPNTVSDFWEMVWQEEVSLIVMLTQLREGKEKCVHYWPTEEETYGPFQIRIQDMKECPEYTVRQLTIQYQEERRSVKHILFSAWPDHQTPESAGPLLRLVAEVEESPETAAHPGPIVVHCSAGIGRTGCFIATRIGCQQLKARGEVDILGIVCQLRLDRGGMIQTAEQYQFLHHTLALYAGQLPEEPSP

[14] = biological target: Dual specificity protein phosphatase 3 (Homo sapiens, UniProt P51452); experiment: SAR VHR1 Fluorescent Assay for In Vitro dose response studies Set 2. [Related pubchem assays (depositor defined):AID1654, AID1661, AID1878]; assay type: functional
[15] = biological target: T7, Coagulation factor XII (Homo sapiens, UniProt P00748); experiment: Factor XIIa Dose Response Confirmation from Single Well HTS. [Related pubchem assays (depositor defined):AID701]; assay type: functional
T7 sequence (P00748 whole entry): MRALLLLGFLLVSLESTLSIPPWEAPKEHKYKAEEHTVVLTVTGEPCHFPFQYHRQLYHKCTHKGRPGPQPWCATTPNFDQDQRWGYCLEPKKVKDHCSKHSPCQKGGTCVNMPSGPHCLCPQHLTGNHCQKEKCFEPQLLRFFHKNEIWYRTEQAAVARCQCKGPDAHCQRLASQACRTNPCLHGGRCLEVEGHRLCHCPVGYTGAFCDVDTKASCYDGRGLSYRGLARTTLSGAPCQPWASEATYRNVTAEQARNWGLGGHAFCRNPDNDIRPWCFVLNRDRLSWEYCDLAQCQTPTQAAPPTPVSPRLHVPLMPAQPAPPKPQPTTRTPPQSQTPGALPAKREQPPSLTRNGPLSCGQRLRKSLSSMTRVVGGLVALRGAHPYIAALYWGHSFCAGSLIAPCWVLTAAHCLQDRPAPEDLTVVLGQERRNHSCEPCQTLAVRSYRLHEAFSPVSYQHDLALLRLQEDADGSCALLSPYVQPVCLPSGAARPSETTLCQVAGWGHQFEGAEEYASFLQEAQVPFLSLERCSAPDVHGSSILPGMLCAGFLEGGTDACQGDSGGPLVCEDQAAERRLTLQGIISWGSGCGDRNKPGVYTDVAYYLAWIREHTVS

[16] = biological target: CAAX prenyl protease 2 (Saccharomyces cerevisiae S288c, UniProt Q03530); assay type: biochemical
[17] = biological target: T8, CAAX prenyl protease 2 (Homo sapiens, UniProt Q9Y256); experiment: human Rce1 protease inhibitors, dose response, biochemical, yeast membranes, quenched-peptide fluorescence, cherry-pick (AID 588849)
T8 sequence (Q9Y256 whole entry): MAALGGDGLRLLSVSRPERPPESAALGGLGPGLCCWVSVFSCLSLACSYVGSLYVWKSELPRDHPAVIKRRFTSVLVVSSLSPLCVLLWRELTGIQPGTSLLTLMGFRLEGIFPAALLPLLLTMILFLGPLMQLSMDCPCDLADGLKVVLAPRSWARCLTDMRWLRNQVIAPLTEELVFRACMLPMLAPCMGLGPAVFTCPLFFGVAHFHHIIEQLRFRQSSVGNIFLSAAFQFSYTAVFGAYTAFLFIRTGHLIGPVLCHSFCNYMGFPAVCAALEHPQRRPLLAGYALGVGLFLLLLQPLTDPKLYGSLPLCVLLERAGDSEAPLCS

T4 sequence (P21554 whole entry): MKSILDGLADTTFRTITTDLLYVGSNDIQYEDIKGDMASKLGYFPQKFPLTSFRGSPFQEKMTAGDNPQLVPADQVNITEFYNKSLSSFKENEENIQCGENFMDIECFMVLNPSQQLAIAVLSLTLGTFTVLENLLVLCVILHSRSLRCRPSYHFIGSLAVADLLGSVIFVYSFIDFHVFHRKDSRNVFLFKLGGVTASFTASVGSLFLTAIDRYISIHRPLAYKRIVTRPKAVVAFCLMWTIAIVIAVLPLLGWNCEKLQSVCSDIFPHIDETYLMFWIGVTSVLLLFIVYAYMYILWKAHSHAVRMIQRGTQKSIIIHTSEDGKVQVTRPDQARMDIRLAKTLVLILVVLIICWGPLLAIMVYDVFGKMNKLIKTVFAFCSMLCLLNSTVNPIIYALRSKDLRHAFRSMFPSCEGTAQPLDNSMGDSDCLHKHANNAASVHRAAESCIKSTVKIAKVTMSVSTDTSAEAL
T3 sequence (Q9HC97 whole entry): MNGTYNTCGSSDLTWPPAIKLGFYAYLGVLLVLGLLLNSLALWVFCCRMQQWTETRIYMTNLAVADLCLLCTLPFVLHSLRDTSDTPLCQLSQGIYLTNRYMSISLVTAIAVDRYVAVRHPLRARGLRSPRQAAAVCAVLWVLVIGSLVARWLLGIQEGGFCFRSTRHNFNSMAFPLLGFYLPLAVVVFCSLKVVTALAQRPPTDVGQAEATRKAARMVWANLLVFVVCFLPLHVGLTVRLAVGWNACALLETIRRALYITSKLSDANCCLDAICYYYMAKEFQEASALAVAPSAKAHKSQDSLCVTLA
T1 sequence (P34972 whole entry): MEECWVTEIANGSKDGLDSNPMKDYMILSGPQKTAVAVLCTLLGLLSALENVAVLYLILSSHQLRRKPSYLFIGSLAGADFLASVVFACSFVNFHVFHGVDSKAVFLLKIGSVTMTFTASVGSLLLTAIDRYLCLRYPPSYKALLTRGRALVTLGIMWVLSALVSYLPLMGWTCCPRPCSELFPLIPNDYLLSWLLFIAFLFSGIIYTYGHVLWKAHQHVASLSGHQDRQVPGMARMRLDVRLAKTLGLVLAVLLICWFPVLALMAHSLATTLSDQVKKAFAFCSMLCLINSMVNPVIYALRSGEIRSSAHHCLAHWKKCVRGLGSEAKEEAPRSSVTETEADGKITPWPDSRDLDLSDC
T2 sequence (Q9Y2T6 whole entry): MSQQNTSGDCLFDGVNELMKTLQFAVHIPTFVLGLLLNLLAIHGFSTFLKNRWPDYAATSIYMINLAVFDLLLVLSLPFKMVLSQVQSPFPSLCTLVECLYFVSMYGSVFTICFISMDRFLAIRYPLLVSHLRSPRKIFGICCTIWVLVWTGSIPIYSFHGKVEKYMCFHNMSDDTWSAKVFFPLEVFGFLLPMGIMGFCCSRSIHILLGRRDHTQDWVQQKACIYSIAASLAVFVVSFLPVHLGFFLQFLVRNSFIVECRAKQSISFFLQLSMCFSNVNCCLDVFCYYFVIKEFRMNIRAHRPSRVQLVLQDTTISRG
Chain of Dual specificity protein phosphatase 3 (P51452 whole entry): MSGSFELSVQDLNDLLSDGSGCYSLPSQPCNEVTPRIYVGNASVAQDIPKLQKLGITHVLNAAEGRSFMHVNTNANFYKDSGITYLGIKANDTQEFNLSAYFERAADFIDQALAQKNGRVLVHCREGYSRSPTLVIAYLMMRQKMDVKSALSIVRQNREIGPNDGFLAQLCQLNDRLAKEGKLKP
Chain of Hexokinase (Q38C41 whole entry): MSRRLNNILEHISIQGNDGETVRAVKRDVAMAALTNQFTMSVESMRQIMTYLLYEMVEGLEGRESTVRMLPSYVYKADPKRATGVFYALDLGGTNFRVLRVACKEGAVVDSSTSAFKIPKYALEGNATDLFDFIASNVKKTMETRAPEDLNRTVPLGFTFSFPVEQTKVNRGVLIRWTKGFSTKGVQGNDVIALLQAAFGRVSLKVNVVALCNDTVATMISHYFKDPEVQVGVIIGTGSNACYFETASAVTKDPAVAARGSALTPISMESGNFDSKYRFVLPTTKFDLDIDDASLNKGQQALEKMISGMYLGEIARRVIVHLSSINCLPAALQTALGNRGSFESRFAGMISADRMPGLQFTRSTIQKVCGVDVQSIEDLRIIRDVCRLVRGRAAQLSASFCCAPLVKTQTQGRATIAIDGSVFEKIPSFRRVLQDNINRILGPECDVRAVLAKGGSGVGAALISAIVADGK
Chain of CAAX prenyl protease 2 (Saccharomyces cerevisiae S288c, UniProt Q03530) (Q03530 whole entry): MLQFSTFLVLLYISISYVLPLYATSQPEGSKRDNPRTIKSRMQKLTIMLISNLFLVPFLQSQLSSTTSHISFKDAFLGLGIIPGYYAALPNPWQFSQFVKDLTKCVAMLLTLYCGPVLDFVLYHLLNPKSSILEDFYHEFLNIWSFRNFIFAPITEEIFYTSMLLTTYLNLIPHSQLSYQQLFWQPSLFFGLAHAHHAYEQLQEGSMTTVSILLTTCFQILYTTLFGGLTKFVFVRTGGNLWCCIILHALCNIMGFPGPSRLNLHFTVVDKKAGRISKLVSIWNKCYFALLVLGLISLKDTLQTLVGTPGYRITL

SMILES: Cc1cccc(N2CCN(C(=O)c3cc(S(=O)(=O)N(C)C)ccc3Cl)CC2)c1C
- IC50 [1]: > 32 µM (inactive)
- EC50 [2]: 1.53 µM (active)
- EC50 [3]: > 32 µM (inactive)
- EC50 [4]: > 32 µM (inactive)
- IC50 [5]: 15.6 µM (inactive)
- EC50 [6]: > 32 µM (inactive)
- IC50 [7]: > 32 µM (inactive)

SMILES: c1ccc2c(-c3c[nH]c4ccccc34)c3ccccc3nc2c1
- EC50 [8]: 8.94 µM (active)
- EC50 [9]: > 150 µM (not active)
- IC50 [10]: 4.83 µM (active)
- EC50 [11]: 15.8 µM (active)

SMILES: COc1ccc(C(=O)NC(C(=O)O)c2ccccc2)cc1 (configuration not stated)
- IC50 [12]: > 25 µM (inactive)

SMILES: COc1ccc(N2CCN(C(=O)Nc3ccc(S(N)(=O)=O)cc3)CC2)cc1
- IC50 [13]: 51 µM (active)
- IC50 [14]: > 100 µM (inactive)

SMILES: CC1=CC(=NOC(=O)c2cccc([N+](=O)[O-])c2)C=C(C)C1=O
- IC50 [15]: 1.94 µM (active)

SMILES: CN1c2ccccc2-c2nc3ccccc3n2C1c1ccncc1 (configuration not stated)
- AC50 [16]: 68.9 µM (active)
- AC50 [17]: 2.65 µM (active)
